Laboratory results as given in ChEMBL document CHEMBL5728584, “Bicyclic amide compounds and methods of use thereof” (2021).

Target: T1, Receptor-interacting serine/threonine-protein kinase 1 (Homo sapiens, UniProt Q13546)
T1 sequence (Q13546 whole entry): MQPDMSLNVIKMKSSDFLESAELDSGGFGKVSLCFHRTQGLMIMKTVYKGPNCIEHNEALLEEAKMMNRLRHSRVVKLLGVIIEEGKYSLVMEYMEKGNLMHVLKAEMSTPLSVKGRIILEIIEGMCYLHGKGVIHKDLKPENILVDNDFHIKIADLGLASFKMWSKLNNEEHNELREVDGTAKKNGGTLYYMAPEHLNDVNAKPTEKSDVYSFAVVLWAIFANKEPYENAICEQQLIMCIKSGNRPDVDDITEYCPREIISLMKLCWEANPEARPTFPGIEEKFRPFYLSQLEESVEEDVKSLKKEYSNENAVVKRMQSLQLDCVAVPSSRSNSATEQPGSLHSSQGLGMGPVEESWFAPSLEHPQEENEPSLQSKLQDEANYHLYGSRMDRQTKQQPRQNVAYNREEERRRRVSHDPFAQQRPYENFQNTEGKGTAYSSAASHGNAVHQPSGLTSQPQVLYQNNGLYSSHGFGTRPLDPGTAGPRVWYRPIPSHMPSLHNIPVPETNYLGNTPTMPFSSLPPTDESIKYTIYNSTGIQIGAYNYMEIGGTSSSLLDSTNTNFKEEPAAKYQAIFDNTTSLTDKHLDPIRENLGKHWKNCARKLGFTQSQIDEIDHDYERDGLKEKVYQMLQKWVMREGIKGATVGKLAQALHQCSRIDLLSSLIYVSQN
Assay: Biochemical Assay: The ability of the receptor interacting protein kinase (RIPK1) to catalyze the hydrolysis of adenosine-5′-triphosphate (ATP) is monitored using the Transcreener ADP (adenosine-5′-diphosphate) assay (BellBrook Labs). Purified human RIP1 kinase domain (2-375) (50 nM) derived from a baculovirus-infected insect cell expression system is incubated with test compounds for 2 hours in 50 mM Hepes buffer (pH 7.5) containing 30 mM MgCl2, 1 mM dithiothreitol, 50 uM ATP, 0.002% Brij-35, and 0.5% dimethyl sulfoxide (DMSO). Reactions are quenched by the addition of 1× Bell Brooks Stop buffer B (20 mM Hepes (ph7.5), 40 mM ethylenediaminetetraacetic acid and 0.02% Brij-35) containing an additional 12 mM EDTA and 55 ug/mL ADP2 antibody and 4 nM ADP-AlexaFluor® 633 tracer. The tracer bound to the antibody is displaced by the ADP generated during the RIP1K reaction, which causes a decrease in fluorescence polarization that is measured by laser excitation at 633 nm with a FP microplate reader M1000.

- Ki: 2100 nM
SMILES: O=C(c1nc2n(n1)CCOC2c1ccccc1)N1CC(F)C1 (racemic)
